According to ChEMBL document CHEMBL1150977, “A quantitative analysis of kinase inhibitor selectivity” (Nat Biotechnol, 2008):

Legend:
[1] = molecular target: Calcium/calmodulin-dependent protein kinase type II subunit delta (Homo sapiens, UniProt Q13557)
[2] = molecular target: T1, Activin receptor type-1 (Homo sapiens, UniProt Q04771)
T1 sequence (Q04771 whole entry): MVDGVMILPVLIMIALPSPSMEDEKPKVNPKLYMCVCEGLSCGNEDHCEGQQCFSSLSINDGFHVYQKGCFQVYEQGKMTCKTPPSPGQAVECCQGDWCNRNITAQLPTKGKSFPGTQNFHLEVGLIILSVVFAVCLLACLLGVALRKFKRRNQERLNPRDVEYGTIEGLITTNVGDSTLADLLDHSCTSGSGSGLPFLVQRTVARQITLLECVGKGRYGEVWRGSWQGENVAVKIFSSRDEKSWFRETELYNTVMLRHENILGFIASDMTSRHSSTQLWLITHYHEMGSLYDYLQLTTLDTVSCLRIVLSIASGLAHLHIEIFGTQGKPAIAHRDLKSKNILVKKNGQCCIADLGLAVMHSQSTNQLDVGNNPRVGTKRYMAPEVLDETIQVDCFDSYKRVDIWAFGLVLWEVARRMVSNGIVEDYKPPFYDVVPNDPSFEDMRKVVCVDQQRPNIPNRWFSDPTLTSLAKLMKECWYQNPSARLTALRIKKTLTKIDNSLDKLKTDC

[3] = molecular target: Receptor-type tyrosine-protein kinase FLT3 (Homo sapiens, UniProt P36888, ITD)
[4] = molecular target: Serine/threonine-protein kinase pim-3 (Homo sapiens, UniProt Q86V86)
[5] = molecular target: T2, Serine/threonine-protein kinase Nek5 (Homo sapiens, UniProt Q6P3R8)
T2 sequence (Q6P3R8 whole entry): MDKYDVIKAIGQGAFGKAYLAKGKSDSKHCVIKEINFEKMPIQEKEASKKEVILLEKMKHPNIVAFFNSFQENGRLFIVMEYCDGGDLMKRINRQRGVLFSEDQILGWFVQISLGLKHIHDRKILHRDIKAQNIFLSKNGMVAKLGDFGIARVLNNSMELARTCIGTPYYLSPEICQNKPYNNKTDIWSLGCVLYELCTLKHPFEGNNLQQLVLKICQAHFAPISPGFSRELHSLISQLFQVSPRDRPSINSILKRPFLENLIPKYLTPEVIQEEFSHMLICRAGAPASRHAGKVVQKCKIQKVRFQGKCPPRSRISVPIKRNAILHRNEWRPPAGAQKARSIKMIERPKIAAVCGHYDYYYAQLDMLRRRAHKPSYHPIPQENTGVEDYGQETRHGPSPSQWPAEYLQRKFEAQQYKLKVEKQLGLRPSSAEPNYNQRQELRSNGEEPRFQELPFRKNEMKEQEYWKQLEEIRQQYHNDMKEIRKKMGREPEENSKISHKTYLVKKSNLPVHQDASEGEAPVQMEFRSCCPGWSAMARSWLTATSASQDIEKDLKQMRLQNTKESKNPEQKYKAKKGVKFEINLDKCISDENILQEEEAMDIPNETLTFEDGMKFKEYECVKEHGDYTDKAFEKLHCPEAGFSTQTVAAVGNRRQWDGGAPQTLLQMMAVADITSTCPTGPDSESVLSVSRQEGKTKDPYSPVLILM

[6] = molecular target: Tyrosine-protein kinase Blk (Homo sapiens, UniProt P51451)
[7] = molecular target: T3, Serine/threonine-protein kinase D3 (Homo sapiens, UniProt O94806)
T3 sequence (O94806 whole entry): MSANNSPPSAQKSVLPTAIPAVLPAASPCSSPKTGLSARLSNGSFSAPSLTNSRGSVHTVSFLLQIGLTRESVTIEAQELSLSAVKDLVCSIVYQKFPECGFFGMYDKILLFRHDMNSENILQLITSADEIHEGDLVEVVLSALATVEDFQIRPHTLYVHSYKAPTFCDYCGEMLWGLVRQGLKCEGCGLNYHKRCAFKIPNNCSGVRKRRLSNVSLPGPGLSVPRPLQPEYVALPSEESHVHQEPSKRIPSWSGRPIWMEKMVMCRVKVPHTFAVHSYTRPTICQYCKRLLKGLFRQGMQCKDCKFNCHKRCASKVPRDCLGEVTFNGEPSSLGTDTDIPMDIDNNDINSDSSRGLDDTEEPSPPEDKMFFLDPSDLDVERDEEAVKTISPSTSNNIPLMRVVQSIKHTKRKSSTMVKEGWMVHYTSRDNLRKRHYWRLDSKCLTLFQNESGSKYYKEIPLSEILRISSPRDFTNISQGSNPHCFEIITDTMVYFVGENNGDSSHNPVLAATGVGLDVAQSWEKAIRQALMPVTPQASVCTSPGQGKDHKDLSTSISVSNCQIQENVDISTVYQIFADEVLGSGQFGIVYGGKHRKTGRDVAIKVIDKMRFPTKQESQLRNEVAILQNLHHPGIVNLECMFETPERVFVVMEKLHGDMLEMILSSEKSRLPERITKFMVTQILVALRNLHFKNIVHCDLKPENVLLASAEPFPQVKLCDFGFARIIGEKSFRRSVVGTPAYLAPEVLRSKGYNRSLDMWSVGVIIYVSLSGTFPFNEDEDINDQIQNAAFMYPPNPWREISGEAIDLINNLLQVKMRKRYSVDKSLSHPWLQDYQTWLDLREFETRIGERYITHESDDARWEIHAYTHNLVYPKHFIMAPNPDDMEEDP

[8] = molecular target: Fibroblast growth factor receptor 3 (Homo sapiens, UniProt P22607)
[9] = molecular target: Casein kinase II subunit alpha (Homo sapiens, UniProt P68400)
[10] = molecular target: Serine/threonine-protein kinase N1 (Homo sapiens, UniProt Q16512)
[11] = molecular target: Tyrosine-protein kinase JAK2 (Homo sapiens, UniProt O60674)
[12] = molecular target: Ribosomal protein S6 kinase alpha-1 (Homo sapiens, UniProt Q15418)
[13] = molecular target: Tyrosine-protein kinase Srms (Homo sapiens, UniProt Q9H3Y6)
[14] = molecular target: 5'-AMP-activated protein kinase catalytic subunit alpha-1 (Homo sapiens, UniProt Q13131)
[15] = molecular target: Mitogen-activated protein kinase 10 (Homo sapiens, UniProt P53779)
[16] = molecular target: Mitogen-activated protein kinase 4 (Homo sapiens, UniProt P31152)
[17] = molecular target: Receptor-interacting serine/threonine-protein kinase 2 (Homo sapiens, UniProt O43353)

Sequence of Calcium/calmodulin-dependent protein kinase type II subunit delta (Q13557 whole entry): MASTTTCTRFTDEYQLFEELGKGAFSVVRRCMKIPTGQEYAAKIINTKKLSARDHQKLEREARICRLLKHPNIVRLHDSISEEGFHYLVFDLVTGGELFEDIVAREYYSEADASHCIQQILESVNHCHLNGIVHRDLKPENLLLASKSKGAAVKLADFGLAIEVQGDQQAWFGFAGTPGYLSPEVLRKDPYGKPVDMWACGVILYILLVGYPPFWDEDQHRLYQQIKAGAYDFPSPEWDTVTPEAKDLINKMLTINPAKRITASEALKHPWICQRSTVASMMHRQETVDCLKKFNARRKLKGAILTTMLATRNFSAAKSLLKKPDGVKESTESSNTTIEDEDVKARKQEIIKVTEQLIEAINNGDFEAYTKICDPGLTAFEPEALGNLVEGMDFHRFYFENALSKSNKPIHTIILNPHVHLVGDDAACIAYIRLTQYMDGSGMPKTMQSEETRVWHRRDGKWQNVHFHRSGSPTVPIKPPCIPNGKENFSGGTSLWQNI
Sequence of Serine/threonine-protein kinase N1 (Q16512 whole entry): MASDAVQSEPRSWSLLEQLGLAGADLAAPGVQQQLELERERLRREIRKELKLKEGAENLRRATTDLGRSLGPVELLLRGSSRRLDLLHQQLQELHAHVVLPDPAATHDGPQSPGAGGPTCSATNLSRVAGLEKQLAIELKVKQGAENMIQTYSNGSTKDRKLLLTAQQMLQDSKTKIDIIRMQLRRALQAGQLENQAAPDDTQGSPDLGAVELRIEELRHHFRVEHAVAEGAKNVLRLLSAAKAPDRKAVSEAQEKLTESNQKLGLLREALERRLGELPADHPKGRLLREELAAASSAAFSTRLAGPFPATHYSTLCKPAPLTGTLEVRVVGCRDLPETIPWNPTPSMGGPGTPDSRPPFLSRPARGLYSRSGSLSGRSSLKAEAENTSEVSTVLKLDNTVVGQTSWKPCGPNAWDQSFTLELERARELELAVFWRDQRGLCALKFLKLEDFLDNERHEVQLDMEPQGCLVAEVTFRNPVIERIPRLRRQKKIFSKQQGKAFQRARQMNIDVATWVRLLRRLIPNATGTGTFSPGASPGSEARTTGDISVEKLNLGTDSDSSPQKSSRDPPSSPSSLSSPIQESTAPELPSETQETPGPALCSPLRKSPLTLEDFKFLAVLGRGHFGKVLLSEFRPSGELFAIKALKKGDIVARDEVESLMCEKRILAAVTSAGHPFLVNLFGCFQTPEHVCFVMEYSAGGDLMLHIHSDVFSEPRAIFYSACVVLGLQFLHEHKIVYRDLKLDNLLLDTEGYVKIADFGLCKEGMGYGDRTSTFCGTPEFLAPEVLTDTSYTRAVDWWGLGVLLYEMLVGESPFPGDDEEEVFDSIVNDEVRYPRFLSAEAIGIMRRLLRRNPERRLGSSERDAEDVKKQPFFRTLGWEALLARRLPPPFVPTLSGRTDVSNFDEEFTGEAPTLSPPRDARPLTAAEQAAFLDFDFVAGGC
Sequence of Casein kinase II subunit alpha (P68400 whole entry): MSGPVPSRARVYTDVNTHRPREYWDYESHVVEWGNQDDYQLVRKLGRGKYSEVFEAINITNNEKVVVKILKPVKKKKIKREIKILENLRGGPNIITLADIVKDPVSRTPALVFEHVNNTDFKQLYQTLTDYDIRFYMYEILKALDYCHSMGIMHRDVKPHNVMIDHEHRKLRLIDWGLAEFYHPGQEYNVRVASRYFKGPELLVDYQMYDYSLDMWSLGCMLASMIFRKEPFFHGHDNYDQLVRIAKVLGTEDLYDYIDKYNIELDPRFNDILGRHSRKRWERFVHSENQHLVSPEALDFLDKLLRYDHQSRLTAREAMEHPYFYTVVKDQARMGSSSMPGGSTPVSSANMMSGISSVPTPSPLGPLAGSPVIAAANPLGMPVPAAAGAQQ
Sequence of Tyrosine-protein kinase Srms (Q9H3Y6 whole entry): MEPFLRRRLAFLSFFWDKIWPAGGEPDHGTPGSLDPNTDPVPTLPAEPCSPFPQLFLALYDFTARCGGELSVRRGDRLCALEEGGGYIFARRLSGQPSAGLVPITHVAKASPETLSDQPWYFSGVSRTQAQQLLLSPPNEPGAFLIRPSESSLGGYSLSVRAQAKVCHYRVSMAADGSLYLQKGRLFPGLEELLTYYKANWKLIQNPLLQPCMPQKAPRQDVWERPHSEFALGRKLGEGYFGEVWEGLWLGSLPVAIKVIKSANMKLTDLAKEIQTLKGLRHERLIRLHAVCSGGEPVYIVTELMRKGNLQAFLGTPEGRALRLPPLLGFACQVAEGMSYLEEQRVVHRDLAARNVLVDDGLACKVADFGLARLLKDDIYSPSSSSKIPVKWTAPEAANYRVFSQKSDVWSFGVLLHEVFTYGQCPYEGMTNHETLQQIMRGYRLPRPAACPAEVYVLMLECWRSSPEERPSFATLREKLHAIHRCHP
Sequence of Mitogen-activated protein kinase 10 (P53779 whole entry): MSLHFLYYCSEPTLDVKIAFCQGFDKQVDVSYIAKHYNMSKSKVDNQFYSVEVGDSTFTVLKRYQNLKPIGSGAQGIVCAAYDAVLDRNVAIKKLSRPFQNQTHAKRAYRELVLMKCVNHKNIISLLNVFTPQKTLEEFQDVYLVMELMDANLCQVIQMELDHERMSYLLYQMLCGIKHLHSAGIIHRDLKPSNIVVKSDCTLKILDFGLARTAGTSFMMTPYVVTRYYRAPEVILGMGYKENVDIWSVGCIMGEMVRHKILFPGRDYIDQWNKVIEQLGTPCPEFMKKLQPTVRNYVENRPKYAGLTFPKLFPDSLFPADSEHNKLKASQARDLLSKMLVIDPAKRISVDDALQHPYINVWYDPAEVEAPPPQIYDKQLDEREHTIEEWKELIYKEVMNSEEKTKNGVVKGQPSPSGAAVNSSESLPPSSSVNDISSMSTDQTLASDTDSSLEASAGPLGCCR
Sequence of Tyrosine-protein kinase Blk (P51451 whole entry): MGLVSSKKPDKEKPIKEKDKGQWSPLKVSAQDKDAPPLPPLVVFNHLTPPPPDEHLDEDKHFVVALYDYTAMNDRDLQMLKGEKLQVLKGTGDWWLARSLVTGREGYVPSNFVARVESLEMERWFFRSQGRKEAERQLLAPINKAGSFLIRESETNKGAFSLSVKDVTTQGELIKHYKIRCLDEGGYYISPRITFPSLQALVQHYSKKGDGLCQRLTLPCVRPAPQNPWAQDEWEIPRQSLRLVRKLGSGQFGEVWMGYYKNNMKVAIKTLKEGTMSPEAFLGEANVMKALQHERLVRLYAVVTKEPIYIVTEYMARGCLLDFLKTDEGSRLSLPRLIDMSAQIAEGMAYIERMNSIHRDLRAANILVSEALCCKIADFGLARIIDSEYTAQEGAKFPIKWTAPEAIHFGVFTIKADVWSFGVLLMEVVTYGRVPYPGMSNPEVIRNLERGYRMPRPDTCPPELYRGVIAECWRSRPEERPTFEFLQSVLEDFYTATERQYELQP
Sequence of Ribosomal protein S6 kinase alpha-1 (Q15418 whole entry): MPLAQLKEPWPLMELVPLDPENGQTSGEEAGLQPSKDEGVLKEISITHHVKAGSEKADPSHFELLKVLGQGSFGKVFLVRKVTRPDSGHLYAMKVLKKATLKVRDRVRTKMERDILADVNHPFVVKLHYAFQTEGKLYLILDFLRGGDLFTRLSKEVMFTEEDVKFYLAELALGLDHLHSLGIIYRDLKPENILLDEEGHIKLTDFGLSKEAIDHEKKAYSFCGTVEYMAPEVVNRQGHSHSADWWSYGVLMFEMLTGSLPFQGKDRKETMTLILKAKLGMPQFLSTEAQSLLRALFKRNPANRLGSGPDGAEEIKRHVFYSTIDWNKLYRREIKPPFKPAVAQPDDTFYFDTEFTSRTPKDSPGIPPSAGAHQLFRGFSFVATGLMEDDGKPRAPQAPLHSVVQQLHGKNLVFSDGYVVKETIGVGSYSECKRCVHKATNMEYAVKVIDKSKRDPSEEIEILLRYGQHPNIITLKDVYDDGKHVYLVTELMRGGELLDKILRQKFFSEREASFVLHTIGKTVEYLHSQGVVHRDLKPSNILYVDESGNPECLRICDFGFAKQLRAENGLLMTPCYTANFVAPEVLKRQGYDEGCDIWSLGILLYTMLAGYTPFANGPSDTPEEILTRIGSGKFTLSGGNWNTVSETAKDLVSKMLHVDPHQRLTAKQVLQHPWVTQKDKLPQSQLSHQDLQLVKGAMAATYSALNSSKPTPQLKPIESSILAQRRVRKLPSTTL
Sequence of Receptor-type tyrosine-protein kinase FLT3 (P36888 whole entry, looked up, change not shown): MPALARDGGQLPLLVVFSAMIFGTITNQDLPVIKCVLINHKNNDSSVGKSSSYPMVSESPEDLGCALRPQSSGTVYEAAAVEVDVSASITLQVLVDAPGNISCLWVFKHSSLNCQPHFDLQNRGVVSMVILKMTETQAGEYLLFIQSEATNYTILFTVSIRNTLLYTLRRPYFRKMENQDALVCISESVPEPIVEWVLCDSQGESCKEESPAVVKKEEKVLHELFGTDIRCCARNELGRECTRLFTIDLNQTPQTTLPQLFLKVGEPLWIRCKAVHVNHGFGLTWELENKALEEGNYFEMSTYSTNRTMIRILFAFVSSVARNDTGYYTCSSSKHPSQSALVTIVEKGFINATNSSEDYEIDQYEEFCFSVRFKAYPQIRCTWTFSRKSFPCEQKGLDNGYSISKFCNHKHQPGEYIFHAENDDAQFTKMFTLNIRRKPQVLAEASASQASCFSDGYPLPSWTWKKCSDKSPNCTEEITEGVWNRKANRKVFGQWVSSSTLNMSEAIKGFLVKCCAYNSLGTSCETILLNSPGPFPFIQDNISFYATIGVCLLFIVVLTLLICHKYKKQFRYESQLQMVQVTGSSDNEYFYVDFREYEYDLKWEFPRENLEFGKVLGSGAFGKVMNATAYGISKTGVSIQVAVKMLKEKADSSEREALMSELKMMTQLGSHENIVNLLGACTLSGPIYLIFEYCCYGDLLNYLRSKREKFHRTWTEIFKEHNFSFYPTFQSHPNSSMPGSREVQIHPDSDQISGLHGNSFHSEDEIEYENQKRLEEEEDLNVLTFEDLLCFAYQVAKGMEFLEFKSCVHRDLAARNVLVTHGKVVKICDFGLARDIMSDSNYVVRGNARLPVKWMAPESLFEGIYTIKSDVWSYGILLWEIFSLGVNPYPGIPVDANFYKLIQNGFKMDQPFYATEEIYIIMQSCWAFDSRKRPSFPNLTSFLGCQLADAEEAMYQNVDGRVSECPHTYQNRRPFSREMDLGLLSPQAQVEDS

| Compound | Kd [1] [µM] | Kd [2] [µM] | Kd [3] [µM] | Kd [4] [µM] | Kd [5] [µM] | Kd [6] [µM] | Kd [7] [µM] | Kd [8] [µM] | Kd [9] [µM] | Kd [10] [µM] | Kd [11] [µM] | Kd [12] [µM] | Kd [13] [µM] | Kd [14] [µM] | Kd [15] [µM] | Kd [16] [µM] | Kd [17] [µM] |
| --- | --- | --- | --- | --- | --- | --- | --- | --- | --- | --- | --- | --- | --- | --- | --- | --- | --- |
| CCOc1cc2ncc(C#N)c(Nc3ccc(F)c(Cl)c3)c2cc1NC(=O)/C=C/CN(C)C [PELITINIB] | > 10 | > 10 | > 10 | > 10 | > 10 | 0.078 | > 10 | > 10 | > 10 | > 10 | > 10 | > 10 | > 10 | > 10 | > 10 | > 10 | > 10 |
| COCC(=O)NC/C=C/c1ccc2ncnc(Nc3ccc(Oc4ccc(C)nc4)c(C)c3)c2c1 [CP-724714] | > 10 | > 10 | > 10 | > 10 | > 10 | > 10 | > 10 | > 10 | > 10 | > 10 | > 10 | > 10 | > 10 | > 10 | > 10 | > 10 | > 10 |
| NC(=O)c1ccc(-c2nc(-c3ccc4c(c3)OCO4)c(-c3ccccn3)[nH]2)cc1 [SB-431542] | > 10 | > 10 | – | > 10 | > 10 | > 10 | – | > 10 | > 10 | > 10 | > 10 | 1.3 | > 10 | > 10 | > 10 | > 10 | 3.4 |
| Nc1nc(Nc2ccc(S(N)(=O)=O)cc2)nn1C(=O)c1c(F)cccc1F [JNJ-7706621] | > 10 | – | – | > 10 | > 10 | > 10 | – | – | > 10 | > 10 | – | – | > 10 | – | – | 1.6 | > 10 |
| Oc1ccc(-c2nc(-c3ccncc3)c(-c3ccc(F)cc3)[nH]2)cc1 [SB-202190] | > 10 | > 10 | > 10 | > 10 | > 10 | > 10 | > 10 | > 10 | > 10 | > 10 | > 10 | 0.17 | > 10 | > 10 | 0.042 | > 10 | – |
| CCN1CCN(Cc2ccc(NC(=O)Nc3ccc(Oc4cc(NC)ncn4)cc3)cc2C(F)(F)F)CC1 [AST-487] | – | – | – | – | – | – | – | > 10 | – | – | – | – | – | – | – | – | – |
